Experimental data published in the NIST ThermoML archive (doi:10.1021/acs.jced.8b00309).
± gives the expanded uncertainty stated by the source.

Settings: Crystal

- mass density (293 K, 101.33 kPa, Pycnometric method): 1536 ± 5 kg/m3
- Normal melting temperature (DTA): 148.56 ± 0.5 °C
Compound: Cc1ncc(COP(=O)(O)O)c(C=O)c1O.O [pyridoxal 5-phosphate hydrate]
